Test system: LC3-II
Experiment: LC3-II production capacity at 10 μM (Table 4)
Type: cell-based
Settings: Homo sapiens, 12 h
Procedure: ARPE-19 was dispensed into a 6-well plate at a concentration of 1×10^5 cells/well and cultured for 24 hours. Then, cells were treated with example 17 compound of the present invention at concentrations of 10, 25, and 50 μM for 12 hours. Then, a cell lysis buffer containing a protease inhibitor was added to prepare a cell lysate. The LC3-II level was measured by Western immunoblotting using an anti-LC3-II antibody (Cell Signaling Technology, MA, USA). As an internal control, an antibody against β-actin (Cell Signaling Technology) was used and measured by Western immunoblotting in the same manner as above, and is shown in FIG. 6 (upper graph).
The autophagy activation effect of example compounds expected to have autophagy activation ability and low cytotoxicity among the example compounds in Table 2 above in human retinal pigment epithelial cells was evaluated according to Experimental Example 7. That is, the autophagy activation effect through the increase of LC3-II was evaluated in a concentration-dependent manner, and the results are shown in FIGS. 15 and 16.

| SMILES | fold induction at 10 µM |
| --- | --- |
| C=CCc1ccc(OC)c(-c2cc(CN3CCNCC3)on2)c1 [Example 29, 3-(5-allyl-methoxyphenyl)-5-(piperazine-1-ylmethyl)isoxazole] | 5.8 |
| COc1ccc(C(F)(F)F)cc1-c1cc(CO)on1 [Example 31, (3-(2-methoxy-5-(trifluoromethyl)phenyl)isoxazole-5-yl)methanol] | 0.8 |
| COc1ccc(C(F)(F)F)cc1-c1cc(C(C)(C)O)on1 [Example 32, 2-(3-(2-methoxy-5-(trifluoromethyl)phenyl)isoxazole-5-yl)propan-2-ol] | 0.9 |
| COc1ccc(C(F)(F)F)cc1-c1cc(CCO)on1 [Example 33, 2-(3-(2-methoxy-5-(trifluoromethyl)phenyl)isoxazole-5-yl)ethan-1-ol] | 1.5 |
| COc1cc(C(F)(F)F)ccc1-c1cc(CO)on1 [Example 35, (3-(2-methoxy-4-(trifluoromethyl)phenyl)isoxazole-5-yl)methanol] | 1.1 |
| COc1ccc(C(F)(F)F)cc1-c1cc(COCC(=O)O)on1 [Example 36, 2-((3-(2-methoxy-5-(trifluoromethyl)phenyl)isoxazole-5-yl)methoxy)acetic acid] | 2.3 |
| COc1ccc(C(F)(F)F)cc1-c1cc(CN2CCN(C)C(=O)C2)on1 [Example 37, 4-((3-(2-methoxy-5-(trifluoromethyl)phenyl)isoxazole-5-yl)methyl)-1-methylpiperazine-2-on] | 2.2 |
| COc1ccc(N2CCOCC2)cc1-c1cc(CO)on1 [Example 38, (3-(2-methoxy-5-morpholinophenyl)isoxazole-5-yl)methanol] | 1.2 |
| C=CCc1ccc(OC)c(-c2cc(C(C)(C)O)on2)c1 [Example 39, 2-(3-(5-allyl-2-methoxyphenyl)isoxazole-5-yl)propan-2-ol] | 0.7 |
| CCCc1ccc(OC)c(-c2cc(C(C)(C)O)on2)c1 [Example 40, 2-(3-(2-methoxy-5-propylphenyl)isoxazole-5-yl)propan-2-ol] | 1.6 |
| C=CCc1ccc(OC(F)(F)F)c(-c2cc(CO)on2)c1 [Example 43, (3-(5-allyl-2-(trifluoromethoxy)phenyl)isooxazole-5-yl)methanol] | 19.7 |
| C=CCc1ccc(-c2cc(CO)on2)c(OC)c1 [Example 44, (3-(4-allyl-2-methoxyphenyl)isoxazole-5-yl)methanol] | 3.8 |
| COc1ccc(C(C)C)cc1-c1cc(CO)on1 [Example 45, (3-(5-isopropyl-2-methoxyphenyl)isoxazole-5-yl)methanol] | 2.5 |
| COc1ccc(C(C)C)cc1-c1cc(CN2CCN(C(=O)OC(C)(C)C)CC2)on1 [Example 46, tert-butyl 4-((3-(5-isopropyl-2-methoxyphenyl)isoxazole-5-yl)methyl)piperazine-1-carboxylate] | 1.5 |
| C=CCc1ccc(-c2cc(CN3CCN(C(=O)OC(C)(C)C)CC3)on2)c(OC)c1 [Example 48, tert-butyl 4-((3-(4-allyl-2-methoxyphenyl)isoxazole-5-yl)methyl)piperazine-1-carboxylate] | > 15 |
| C=CCc1ccc(-c2cc(CN3CCNCC3)on2)c(OC)c1 [Example 49, 3-(4-allyl-2-methoxyphenyl)-5-(piperazine-1-ylmethyl)isoxazole] | 1.1 |
| C=CCc1ccc(OC(F)(F)F)c(-c2cc(CN3CCN(C(=O)OC(C)(C)C)CC3)on2)c1 [Example 50, tert-butyl 4-((3-(5-allyl-2-(trifluoromethoxy)phenyl)isoxazole-5-yl)methyl)piperazine-1-carboxylate] | > 25 |
| C=CCc1ccc(OC(F)(F)F)c(-c2cc(CN3CCNCC3)on2)c1 [Example 51, 3-(5-allyl-2-(trifluoromethoxy)phenyl)-5-(piperazine-1-ylmethyl)isoxazole] | > 15 |

Reference: patent publication US20250214951A1, “3-PHENYLISOXAZOLE DERIVATIVE, AND PHARMACEUTICAL COMPOSITION FOR PREVENTING OR TREATING EYE DISEASE, CONTAINING SAME AS ACTIVE INGREDIENT” (VASTHERA CO., LTD., priority 2022, published 2025)
